# In article PMC5884906, “Single Administration of HBK-15—a Triple 5-HT1A, 5-HT7, and 5-HT3 Receptor Antagonist—Reverses Depressive-Like Behaviors in Mouse Model of Depression Induced by Corticosterone” (Molecular Neurobiology, 2017):
# Several values for one entry are separate records, joined by “and”; a condition that tells them apart may be missing. Equal values may be shown once.
# Assays:
# [1] = molecular target: T1, 5-HT3 receptors expressed in guinea pig ileum (Cavia porcellus, UniProt O70212); experiment: guinea pig ileum contractions induced by serotonin; assay type: biochemical; details: for type of antagonism at 5-HT3 receptors: from depression of serotonin maximum; for Kd: functional affinity, double-reciprocal plot, read-out: 5-HT3 receptor pK B ± S.E.M (converted)
# T1 construct: A segment (15 cm) of male guinea pig ileum was excised from the small intestine; from tissue; host or cells: isolated male guinea pig ileum segments in an organ bath
# T1 sequence (O70212 20-490): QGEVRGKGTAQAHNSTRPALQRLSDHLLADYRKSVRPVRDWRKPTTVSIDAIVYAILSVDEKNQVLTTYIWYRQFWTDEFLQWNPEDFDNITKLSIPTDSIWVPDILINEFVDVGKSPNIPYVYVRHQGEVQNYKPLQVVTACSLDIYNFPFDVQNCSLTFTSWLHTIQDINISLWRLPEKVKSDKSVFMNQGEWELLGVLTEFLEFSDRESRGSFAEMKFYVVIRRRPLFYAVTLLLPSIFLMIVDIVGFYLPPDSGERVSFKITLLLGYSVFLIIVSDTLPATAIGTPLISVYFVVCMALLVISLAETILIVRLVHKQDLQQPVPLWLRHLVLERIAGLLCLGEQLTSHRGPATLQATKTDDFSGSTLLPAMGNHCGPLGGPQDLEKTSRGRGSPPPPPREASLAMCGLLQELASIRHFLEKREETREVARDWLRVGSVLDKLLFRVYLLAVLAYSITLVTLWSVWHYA
# [2] = system: corticosterone-treated mice; experiment: elevated plus maze, chronic administration, corticosterone model; assay type: in vivo
# Method: The doses and route of administration of the studied compounds were based on our previous experiments. […] Mice were injected with corticosterone (s.c., 20 mg/kg) at random times during the light phase for 21 consecutive days (Fig. 1b). The dose and route of administration of corticosterone was based on studies performed by Zhao and colleagues. Thirty minutes before, corticosterone injection mice were given (i.p.) saline, HBK-14 (1.25 or 2.5 mg/kg), HBK-15 (0.625 or 1.25 mg/kg), or fluoxetine (10 mg/kg) (Fig. 1b). Control mice received (i.p.) saline and 30 min later saline containing 0.1% dimethyl sulfoxide (DMSO) and 0.1% Tween-80 (s.c.). The experimental groups consisted of eight randomly selected animals. After the end of the procedure, animals were tested in the sucrose preference test, forced swim test, elevated plus maze test, and spontaneous locomotor activity test. Following behavioral testing, rodents were scarified and their hippocampi collected for biochemical analysis. The elevated plus maze was performed according to the method previously described. […] Each mouse was individually placed at the central field of the apparatus with the head turned toward one of the closed arms. […] The device was disinfected with 70% ethanol after each mouse. The number of entries to open and closed arms and time spent in the open and closed arms were measured. The experiments were recorded and scored using aLab.io software by a trained observer blind to the treatments.
# [3] = cited from earlier work
# [4] = cited from earlier work; remark: listed apart in the source
# [5] = system: corticosterone-treated mice; experiment: forced swim test, single administration, corticosterone model; assay type: in vivo
# Method: (§1) Mice were injected with corticosterone (s.c., 20 mg/kg) at random times during the light phase for consecutive 21 days (Fig. 1c). The dose and route of administration of corticosterone were based on studies performed by Zhao and colleagues. After the end of the procedure, next day 30 min before the test, corticosterone-treated mice were given (i.p.) saline, HBK-15 (1.25 mg/kg), fluoxetine (10 mg/kg), or ketamine (1 mg/kg) (Fig. 1c). Control mice received (i.p.) saline. The experimental groups consisted of eight randomly selected animals. We chose the dose of HBK-15 that was active in the chronic experiments (i.e., 1.25 mg/kg). The dose of ketamine was based on the studies performed by Pazini and colleagues. Animals were tested in the forced swim test and spontaneous locomotor activity test. After behavioral testing, mice were scarified and their hippocampi collected for biochemical analysis.
# Forced swim test was performed according to the method described by Porsolt and colleagues and previously described. Mice were placed individually for 6 min in glass cylinders (height 25 cm, diameter 10 cm) containing […] (23–25 °C). The total time of immobility was recorded during the final 4 min of the test. The experiments were recorded and scored using aLab.io software by a trained observer blind to the treatments.
# [6] = system: corticosterone-treated mice; experiment: spontaneous locomotor activity, single administration; assay type: in vivo; details: 4 min
# Method: as §1, with “After the end of the procedure, next day 30 min before the test, corticosterone-treated mice were given (i.p.) saline, HBK-15 (1.25 mg/kg), fluoxetine (10 mg/kg), or ketamine (1 mg/kg) (Fig. 1c).” left out
# The locomotor activity was performed as previously described. Locomotor activity was recorded individually for each mouse using activity cages made of clear Perspex (40 cm × 40 cm × 31 cm, Activity Cage 7441, Ugo Basile, Italy). The cages were supplied with I.R. horizontal beam emitters connected to a counter for the recording of light-beam interruptions. Each mouse was placed in a cage for a 30-min habituation period. After that time, the number of crossings of photobeams was measured for 6 min (chronic studies) or for 4 min (acute experiments; i.e., the time equal to the observation period in the forced swim test). The cages were disinfected with 70% ethanol after each mouse.
# [7] = corticosterone 20 mg/kg s.c. 21 days + saline
Compound,type of antagonism at 5-HT3 receptors [1],Kd [1],"effect on corticosterone-induced decrease in number of open arm entries ([2]; 2.5 mg/kg i.p., 21 days)","effect on corticosterone-induced decrease in time spent in the open arms ([2]; 2.5 mg/kg i.p., 21 days)",cholinolytic activity [3],antihistaminic activity [4],other results
"COc1ccccc1N1CCN(CCOCCOc2c(C)cccc2C)CC1.Cl [HBK-14, 1-[(2,6-Dimethylphenoxy)ethoxyethyl]-4-(2-methoxyphenyl)piperazine hydrochloride]",non-competitive antagonism,0.0112 µM,prevented the decreases,prevented the decreases in the time spent in the open arms,negligible,negligible,"number of open arms entries compared with fluoxetine ([2]; 2.5 mg/kg i.p., 21 days, vs fluoxetine 10 mg/kg): significantly increased"
"COc1ccccc1N1CCN(CCOCCOc2c(C)cccc2Cl)CC1.Cl [HBK-15, 1-[(2-chloro-6-methylphenoxy)ethoxyethyl]-4-(2-methoxyphenyl)piperazine hydrochloride]",non-competitive interaction with 5-HT3 receptors,0.0436 µM,prevented the decreases,prevented the decreases in the time spent in the open arms,negligible,negligible,"effect on corticosterone-induced increase in immobility ([5]; single 1.25 mg/kg i.p., 30 min before the test): reversed an increase in immobility; Number of crossings ± S.E.M ([6]; single 1.25 mg/kg i.p. in corticosterone-treated mice): 245.3 ± 22.5"
C[C@]12C[C@H](O)[C@H]3[C@@H](CCC4=CC(=O)CC[C@@]43C)[C@@H]1CC[C@@H]2C(=O)CO [corticosterone],–,–,–,–,–,–,"decrease in open arm entries vs control [2, 7]: 56% and 48%; decrease in time spent in the open arms vs control [2, 7]: 48%; increase in immobility vs control ([5]; acute experiment, corticosterone 20 mg/kg s.c. 21 days + saline): 20%; Number of crossings ± S.E.M [6, 7]: 230.7 ± 15.8"
"CNCCC(Oc1ccc(C(F)(F)F)cc1)c1ccccc1 (stereo not shown) [fluoxetine, reference compound]",–,–,–,–,–,–,"effect on corticosterone-induced decrease in number of open arm entries ([2]; 10 mg/kg i.p., 21 days): prevented the decreases; effect on corticosterone-induced decrease in time spent in the open arms ([2]; 10 mg/kg i.p., 21 days): prevented the decreases in the time spent in the open arms; Number of crossings ± S.E.M ([6]; single i.p. in corticosterone-treated mice): 231.9 ± 21.9"
